Measurements: article PMC9653409, “Generative deep learning enables the discovery of a potent and selective RIPK1 inhibitor” (Nature Communications, 2022)
Like-named read-outs stand apart in the source and are kept apart here.

How the values were obtained:
[1] = test system: phosphorylation of RIPK1, RIPK3, and MLKL; assay: Western blot of necroptotic signaling proteins in HT29 cells; assay type: cell-based, human; details: HT29, TSZ
Description: Cell pellets were collected and resuspended in RIPA lysis buffer (Beyotime), to which phenylmethylsulfonyl fluoride, a […], and a phosphatase inhibitor cocktail (Sigma) had been added. […] The supernatants were collected and subjected to western blot analysis.
The cell proteins or tissue proteins were separated in a polyacrylamide gel and transferred to a methanol-activated polyvinylidene fluoride membrane. The membrane was blocked for 2 h in Tris-buffered saline plus Tween-20 containing 5% milk and then immunoblotted sequentially with primary and secondary antibodies. Detection was performed with an ECL chemiluminescence kit (Abbkine). […]

RIPK1 [2] = target: T1, RIPK1 (Homo sapiens, UniProt Q13546); assay: RIPK1 kinase assay, ADP-Glo assay; assay type: biochemical
T1 sequence (Q13546 1-671): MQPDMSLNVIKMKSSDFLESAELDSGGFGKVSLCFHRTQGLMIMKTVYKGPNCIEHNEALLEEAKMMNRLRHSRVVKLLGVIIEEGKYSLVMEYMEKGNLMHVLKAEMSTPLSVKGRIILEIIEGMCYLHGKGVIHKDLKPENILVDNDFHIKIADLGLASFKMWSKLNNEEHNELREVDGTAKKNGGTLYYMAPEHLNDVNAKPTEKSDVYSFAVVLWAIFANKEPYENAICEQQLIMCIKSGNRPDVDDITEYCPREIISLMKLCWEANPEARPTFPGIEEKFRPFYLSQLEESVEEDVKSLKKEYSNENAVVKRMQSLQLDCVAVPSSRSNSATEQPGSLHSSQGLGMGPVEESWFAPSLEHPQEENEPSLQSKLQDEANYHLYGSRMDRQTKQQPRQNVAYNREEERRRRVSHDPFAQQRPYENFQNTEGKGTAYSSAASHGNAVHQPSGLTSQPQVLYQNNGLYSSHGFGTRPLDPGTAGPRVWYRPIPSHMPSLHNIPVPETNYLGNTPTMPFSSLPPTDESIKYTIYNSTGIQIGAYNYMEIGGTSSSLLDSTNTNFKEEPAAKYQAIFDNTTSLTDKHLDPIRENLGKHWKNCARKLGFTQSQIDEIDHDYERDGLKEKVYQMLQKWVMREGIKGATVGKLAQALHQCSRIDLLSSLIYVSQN

RIPK1 [3] = target: T1, RIPK1; assay: RIPK1 kinase assay, 33P-labeled ATP assay at Eurofins; assay type: biochemical
Description: (§1) In vitro kinase activity assays were conducted through the Kinase Profiling Services provided by Eurofins (Eurofins, France). The protocol for the RIPK1 assay is briefly described as follows (Protocols for other kinases are very similar and can be found in http://www.eurofins.com/pharmadiscovery). RIPK1 kinase was incubated with the test compound in assay buffer containing 8 mM MOPS (pH 7.0), 0.2 mM EDTA, 250 μM […], 10 mM magnesium acetate, and 10 μM [γ-33P]-ATP for 15 min at room temperature. The reaction was initiated by the addition of the Mg/ATP mixture. After incubation for 40 min at room temperature, and the reaction was stopped by the addition of 3% phosphoric acid. A 10 μL portion of the reaction mixture was then spotted onto a P30 filter mat and washed four times for 4 min in 0.425% phosphoric acid and once in methanol prior to drying and scintillation counting.

[4] = test system: kinases that have an inhibitory rate larger than 50%; assay: IC50 against kinases with inhibitory rate larger than 50%; assay type: biochemical, human; details: all except MLK3; read-out: IC50 against all other kinases followed up
Description: as §1

MLK3 = MLK3 (Homo sapiens, UniProt Q16584); assay: Kinase assay (Eurofins); assay type: biochemical
Chain of MLK3 (Q16584 whole entry): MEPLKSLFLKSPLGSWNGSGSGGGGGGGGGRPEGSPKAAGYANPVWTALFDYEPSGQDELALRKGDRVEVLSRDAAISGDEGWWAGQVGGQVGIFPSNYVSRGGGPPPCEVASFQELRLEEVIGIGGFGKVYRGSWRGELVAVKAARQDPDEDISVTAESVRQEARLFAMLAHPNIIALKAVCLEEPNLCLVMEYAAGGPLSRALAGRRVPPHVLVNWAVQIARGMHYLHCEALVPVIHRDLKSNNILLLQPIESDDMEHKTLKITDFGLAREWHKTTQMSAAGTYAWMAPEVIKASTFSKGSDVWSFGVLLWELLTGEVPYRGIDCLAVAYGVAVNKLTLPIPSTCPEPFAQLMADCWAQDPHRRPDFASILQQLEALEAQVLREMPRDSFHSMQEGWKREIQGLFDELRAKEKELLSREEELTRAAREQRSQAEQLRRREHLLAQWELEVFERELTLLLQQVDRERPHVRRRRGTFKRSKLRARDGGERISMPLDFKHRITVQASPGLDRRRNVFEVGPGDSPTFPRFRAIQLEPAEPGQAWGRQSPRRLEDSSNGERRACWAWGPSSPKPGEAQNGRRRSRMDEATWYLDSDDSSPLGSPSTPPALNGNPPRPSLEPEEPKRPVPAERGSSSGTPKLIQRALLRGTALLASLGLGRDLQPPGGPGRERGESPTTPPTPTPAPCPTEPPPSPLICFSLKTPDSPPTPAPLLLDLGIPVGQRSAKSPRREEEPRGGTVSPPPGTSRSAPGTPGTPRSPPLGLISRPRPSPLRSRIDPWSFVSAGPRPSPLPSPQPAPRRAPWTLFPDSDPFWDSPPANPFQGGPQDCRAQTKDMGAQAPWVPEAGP
Description: as §1

RIPK2 = RIPK2 (Homo sapiens, UniProt O43353); assay: Kinase assay (Eurofins); assay type: biochemical
Chain of RIPK2 (O43353 whole entry): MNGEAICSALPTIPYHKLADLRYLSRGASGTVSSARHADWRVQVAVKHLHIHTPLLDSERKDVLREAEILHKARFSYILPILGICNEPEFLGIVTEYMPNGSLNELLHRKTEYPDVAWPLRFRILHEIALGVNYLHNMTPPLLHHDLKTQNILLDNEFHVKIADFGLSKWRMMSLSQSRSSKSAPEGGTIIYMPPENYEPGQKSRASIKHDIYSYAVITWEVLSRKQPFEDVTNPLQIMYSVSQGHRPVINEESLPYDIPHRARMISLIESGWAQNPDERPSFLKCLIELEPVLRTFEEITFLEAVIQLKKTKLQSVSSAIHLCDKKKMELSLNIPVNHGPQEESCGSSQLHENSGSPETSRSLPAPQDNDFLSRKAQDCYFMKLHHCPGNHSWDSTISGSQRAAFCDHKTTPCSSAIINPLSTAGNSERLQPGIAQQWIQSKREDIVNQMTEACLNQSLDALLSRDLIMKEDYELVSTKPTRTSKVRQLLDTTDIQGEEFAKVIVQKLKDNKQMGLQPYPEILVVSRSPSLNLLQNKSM
Description: as §1

MLK1 = MLK1 (Homo sapiens, UniProt P80192); assay: Kinase assay (Eurofins); assay type: biochemical
Chain of MLK1 (P80192 whole entry): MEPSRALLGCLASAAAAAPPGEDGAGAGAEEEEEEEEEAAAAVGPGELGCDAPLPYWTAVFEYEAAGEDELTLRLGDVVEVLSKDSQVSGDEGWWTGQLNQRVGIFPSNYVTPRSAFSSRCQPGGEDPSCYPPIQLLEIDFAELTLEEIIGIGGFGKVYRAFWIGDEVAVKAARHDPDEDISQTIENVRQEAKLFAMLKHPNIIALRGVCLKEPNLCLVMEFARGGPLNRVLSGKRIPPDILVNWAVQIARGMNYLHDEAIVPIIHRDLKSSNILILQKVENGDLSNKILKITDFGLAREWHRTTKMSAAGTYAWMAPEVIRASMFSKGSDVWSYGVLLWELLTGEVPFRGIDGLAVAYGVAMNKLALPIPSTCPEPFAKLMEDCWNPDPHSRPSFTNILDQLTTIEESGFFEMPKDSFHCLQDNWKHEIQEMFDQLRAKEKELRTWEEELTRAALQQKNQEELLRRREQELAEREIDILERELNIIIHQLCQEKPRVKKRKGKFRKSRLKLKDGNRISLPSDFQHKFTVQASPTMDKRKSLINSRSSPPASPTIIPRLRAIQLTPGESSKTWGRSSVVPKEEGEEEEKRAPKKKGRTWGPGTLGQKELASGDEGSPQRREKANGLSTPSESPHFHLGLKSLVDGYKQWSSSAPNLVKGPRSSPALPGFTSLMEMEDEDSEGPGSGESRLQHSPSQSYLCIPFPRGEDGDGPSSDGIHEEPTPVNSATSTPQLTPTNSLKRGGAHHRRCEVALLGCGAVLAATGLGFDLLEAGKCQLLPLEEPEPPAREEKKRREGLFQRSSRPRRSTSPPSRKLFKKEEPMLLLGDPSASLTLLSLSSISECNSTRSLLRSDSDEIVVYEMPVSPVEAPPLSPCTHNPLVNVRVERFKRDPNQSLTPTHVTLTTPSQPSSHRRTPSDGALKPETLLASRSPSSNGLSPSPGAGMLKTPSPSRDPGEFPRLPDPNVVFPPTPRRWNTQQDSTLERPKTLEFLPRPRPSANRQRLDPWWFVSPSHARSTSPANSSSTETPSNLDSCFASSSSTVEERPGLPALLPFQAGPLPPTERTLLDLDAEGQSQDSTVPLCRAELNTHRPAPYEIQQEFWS
Description: as §1

MLK2 = MLK2 (Homo sapiens, UniProt Q02779); assay: Kinase assay (Eurofins); assay type: biochemical
Chain of MLK2 (Q02779 whole entry): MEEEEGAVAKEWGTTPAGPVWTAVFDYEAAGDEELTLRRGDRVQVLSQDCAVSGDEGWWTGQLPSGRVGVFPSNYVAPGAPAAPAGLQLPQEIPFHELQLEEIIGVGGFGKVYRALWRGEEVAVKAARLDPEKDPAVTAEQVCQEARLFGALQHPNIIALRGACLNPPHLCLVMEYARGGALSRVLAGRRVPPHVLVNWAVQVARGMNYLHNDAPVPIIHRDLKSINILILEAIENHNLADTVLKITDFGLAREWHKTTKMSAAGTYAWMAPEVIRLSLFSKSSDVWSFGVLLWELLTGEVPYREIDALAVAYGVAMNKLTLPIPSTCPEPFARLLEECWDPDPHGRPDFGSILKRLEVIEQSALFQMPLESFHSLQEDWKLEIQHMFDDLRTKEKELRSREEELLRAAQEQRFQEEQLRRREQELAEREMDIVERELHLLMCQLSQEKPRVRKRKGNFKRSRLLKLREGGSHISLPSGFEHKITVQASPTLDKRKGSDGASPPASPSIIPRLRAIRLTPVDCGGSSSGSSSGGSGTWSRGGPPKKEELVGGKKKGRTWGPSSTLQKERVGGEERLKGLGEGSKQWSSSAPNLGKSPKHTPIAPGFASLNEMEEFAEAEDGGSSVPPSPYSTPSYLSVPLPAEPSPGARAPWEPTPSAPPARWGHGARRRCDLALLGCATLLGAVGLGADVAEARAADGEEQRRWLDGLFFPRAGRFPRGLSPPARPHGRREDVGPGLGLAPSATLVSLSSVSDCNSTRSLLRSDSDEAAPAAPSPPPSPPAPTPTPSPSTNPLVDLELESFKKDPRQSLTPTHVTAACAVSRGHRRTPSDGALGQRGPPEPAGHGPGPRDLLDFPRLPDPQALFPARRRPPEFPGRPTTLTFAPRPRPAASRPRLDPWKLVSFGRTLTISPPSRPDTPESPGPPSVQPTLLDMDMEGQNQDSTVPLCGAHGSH
Description: as §1

pRIPK1, pRIPK3, pMLKL = assay: TNFα-induced SIRS mouse model: liver western blot; assay type: in vivo, C57BL/6 female mice; details: 40 mg/kg i.p.
Description: The liver in the SIRS model and the colon in the IBD model were harvested, homogenated and sonicated in RIPA lysis buffer.
The cell proteins or tissue proteins were separated in a polyacrylamide gel and transferred to a methanol-activated polyvinylidene fluoride membrane. The membrane was blocked for 2 h in Tris-buffered saline plus Tween-20 containing 5% milk and then immunoblotted sequentially with primary and secondary antibodies. Detection was performed with an ECL chemiluminescence kit (Abbkine). The antibodies used were human RIPK1 antibody (R&D, 334640, 1:1000), mouse RIPK1 antibody (Affinity, DF2642, 1:1000), human phospho-RIP (Ser166) rabbit mAb (Cell Signaling Technologies, 65746, 1:1000), mouse phospho-RIP (Ser321) rabbit mAb (Cell Signaling Technologies, 38662, 1:1000), human RIPK3 (B-2) antibody (Santa Cruz, sc-374639, 1:250), mouse RIPK3 antibody (Abcam, ab62344, 1:1000), human anti-RIP3 (phospho S227) antibody (Abcam, ab209384, 1:2000), mouse anti-RIP3 (phospho T231 + S232) antibody (Abcam, ab205421, 1:500), anti-MLKL (58–70) antibody (Sigma, M6697, 1:250), human anti-MLKL (phospho S358) antibody (Abcam, ab187091, 1:1000), mouse anti-MLKL (phospho S345) antibody (Abcam, ab196436, 1:1000), and β-actin (Proteintech, 66009-1-Ig, 1:1000).

CC(C)C(=O)Nc1nc2cc(-c3ccc4c(c3)c(C(=O)NC(C)c3ccccc3)cn4C)ccn2n1 (stereo not shown) [RI-962] was tested, and the “phosphorylation of RIPK1, RIPK3 and MLKL in intact cells” value [1] was “markedly inhibited the phosphorylation of RIPK1 and its downstream signaling proteins RIPK3 and MLKL in a dose-dependent manner”, the inhibition at 0.000152416 µM (RIPK1 [2]; 0.152416 nM) was -7.04% and the inhibition at 0.000457247 µM (RIPK1 [2]; 0.457247 nM) was -2.09%. The inhibition at 0.00137174 µM (RIPK1 [2]; 1.371742 nM) was 5.59%, the inhibition at 0.00411523 µM (RIPK1 [2]; 4.115226 nM) was 34.1% and the inhibition at 0.0123457 µM (RIPK1 [2]; 12.345679 nM) was 80%. It also gave an inhibition at 0.037037 µM (RIPK1 [2]; 37.037037 nM) of 94%, an inhibition at 0.111111 µM (RIPK1 [2]; 111.111111 nM) of 95.3% and an inhibition at 0.333333 µM (RIPK1 [2]; 333.333333 nM) of 96.3%. It also gave an inhibition at 1 µM (RIPK1 [2]; 1000.000000 nM) of 98.1%, an inhibition at 3 µM (RIPK1 [2]; 3000.000000 nM) of 99.3% and an IC50 (RIPK1 [2]; ADP-Glo assay) of 0.0059 µM. It also gave an activity at 0.001 µM (RIPK1 [3]; 1 nM) of 82.5%, an activity at 0.003 µM (RIPK1 [3]; 3 nM) of 95% and an activity at 0.01 µM (RIPK1 [3]; 10 nM) of 80.5%. The activity at 0.03 µM (RIPK1 [3]; 30 nM) was 60.5%, the activity at 0.1 µM (RIPK1 [3]; 100 nM) was 17.5% and the activity at 0.3 µM (RIPK1 [3]; 300 nM) was -2%. It also gave an activity at 1 µM (RIPK1 [3]; 1000 nM) of 11.5%, an activity at 3 µM (RIPK1 [3]; 3000 nM) of 3.5% and an activity at 10 µM (RIPK1 [3]; 10 µM, read-out: Activity (%), RIPK1(h)) of 0%. The activity at 10 µM (RIPK1 [3]; 10000 nM, read-out: Activity (%) Average) was -3.5%, the IC50 (RIPK1 [3]; 33P-labeled ATP assay, read-out: IC50) was 0.035 µM and the IC50 [4] was greater than 10 µM. For the same compound, the “folds less potent against MLK3 than against RIPK1” value (MLK3) was 107 folds, the activity at 10 µM (MLK3; 10 µM, read-out: Activity (%), MLK3(h)) was 20% and the IC50 (MLK3; MLK3) was 3.75 µM. It also gave an activity at 10 µM (RIPK2; 10 µM, read-out: Activity (%), RIPK2(h)) of 79%, an IC50 (RIPK2; RIPK2) greater than 10 µM and an activity at 10 µM (MLK1; 10 µM, read-out: Activity (%), MLK1(h)) of 36%. It also gave an IC50 (MLK1; MLK1) greater than 10 µM, an activity at 10 µM (MLK2; 10 µM, read-out: Activity (%), MLK2(h)) of 29% and an IC50 (MLK2; MLK2) greater than 10 µM. For the same compound, the “level of pRIPK1 in liver (western blot)” value (pRIPK1, pRIPK3, pMLKL) was “substantially reduced the level of phosphorated RIPK1 (pRIPK1)”.
